Experimental findings from US20070203066A1, “Compositions and methods for inhibiting cellular proliferation” (priority 2005, published 2007) are described below.

Starred links: 1 amine or outer side, 2 acyl side, 3 side chain; linkers in the order of their positions; H or OH if unused. Positions of bridges follow the written chain, without caps; N, C: chain ends. Non-standard residues stand in square brackets, D forms with d. Residues, ends and D or L forms follow the SMILES beside them. Primed or numbered codes have the meaning given here. Chains are numbered I, II in the order given. No end group written: not given here. Ida = iminodiacetic acid linker, its two carboxyls bind the Lys side-chain amines of two peptides, giving a homodimer; Ida(3) = iminodiacetic acid linker, Lys side-chain amines bound to its two carboxyl groups; Ida(4) = iminodiacetic acid linker (dimerization linker bound to lysine side chain); Ida″ = iminodiacetic acid linker bound to the Lys side-chain amine, forming a dimer; X1 = CC(C)(C)OC(=O)NCCC(=O)N(CCC(=O)[*:1])CCN(CCC(=O)[*:2])C(=O)CCNC(=O)OC(C)(C)C; Aib = CC(C)(N)C(=O)O; Ahx = NCCCCCC(=O)O A value given as a limit tells only on which side of the number the result lay.

One test deals with HUVECs. The test is classed as cell-based. The note with it: 48 h. Here is the method: HUVECs were routinely cultured to near confluency in EGM media (Clontech, Mountain View, California). The cells were trypsinized and plated in a 96-well plate at 5,000 cells per well per 100 μl EBM supplemented with 2% FCS and antibiotics. The cells were allowed to adhere to the plate for at least 12 hours. Then, bFGF at 10 ng/ml or VEGF at 5 ng/ml, and various concentrations of peptide, were added to the wells. The cells were cultured for 48 hours at 37 ° C. in a 5% CO2 atmosphere. Cell proliferation was determined using a bromo-deoxyuridine (BrdU) incorporation method as described by the manufacturer. Inhibition of cell proliferation was assessed by BrdU incorporation.
For the molecule `CC[C@H](C)[C@H](NC(=O)[C@H](C)NC(=O)[C@@H](NC(=O)[C@H](CCCNC(=N)N)NC(=O)[C@H](CCC(N)=O)NC(=O)[C@H](CCCNC(=N)N)NC(=O)[C@H](CCCNC(=N)N)NC(=O)[C@H](CCCNC(=N)N)NC(=O)[C@H](CCCNC(=N)N)NC(=O)[C@H](C)NC(C)=O)C(C)C)C(=O)N[C@@H](Cc1ccc(O)cc1)C(=O)N[C@@H](Cc1ccccc1)C(=O)N[C@@H](CCCCNC(=O)CCN(CCN(CCC(=O)NCCCC[C@H](NC(=O)[C@H](Cc1ccccc1)NC(=O)[C@H](Cc1ccc(O)cc1)NC(=O)[C@@H](NC(=O)[C@H](C)NC(=O)[C@@H](NC(=O)[C@H](CCCNC(=N)N)NC(=O)[C@H](CCC(N)=O)NC(=O)[C@H](CCCNC(=N)N)NC(=O)[C@H](CCCNC(=N)N)NC(=O)[C@H](CCCNC(=N)N)NC(=O)[C@H](CCCNC(=N)N)NC(=O)[C@H](C)NC(C)=O)C(C)C)[C@@H](C)CC)C(N)=O)C(=O)CCNC(=O)OC(C)(C)C)C(=O)CCNC(=O)OC(C)(C)C)C(N)=O` [Peptide 331] (I: Ac-ARRRRQRVAIYFK-NH2 / II: Ac-ARRRRQRVAIYFK-NH2; linker I:13-II:13 via X1; C-terminus assumed), the IC50 is less than 10 µM.

The test is the same for the next values; noted with them: HUVEC proliferation, bFGF at 10 ng/ml or VEGF at 5 ng/ml, 48 hours, BrdU incorporation; read-out: IC50 on HUVECs.
311 (Ac-RRRRRQAVRITITFK) [compound 311]: the 50% inhibitory concentration (IC50) was less than 10 µM.
As for “399 (Ac-ARRRRQAVRIYFK; not fully specified (residue 13, C-terminus); also: homotrimer via ATA linker at Lys13 side chain) [compound 399]”, the IC50 was less than 10 µM.
Regarding “481 (Ac-PRRRYQAVAIYFK; not fully specified (residue 13, C-terminus); also: homodimer via Ida linker on Lys13 side chain) [compound 481]”, the concentration for half-maximal inhibition (IC50) was in the range of 10 to 30 µM.
The same measure, in the same setting: next, “298 (Ac-ARRRRQRVA[Aib]FK-NH2; not fully specified (residue 12); also: homodimer via Ida linker on Lys12 side chain) [compound 298]”: more than 30 µM; “418 (Ac-ARRRRQPVAIYFK; not fully specified (residue 13, C-terminus); also: homodimer of residues 1-13 via Ida linker on K13 side chain) [compound 418]”: less than 10 µM; “243 (Ac-RRHRRQRVHIIF; also: dimer via C-terminal Phe to Lys linker) [compound 243]”: less than 10 µM.
The same measure, in the same setting: next, “278 (Ac-RRRRRQHVHIYFK-NH2; not fully specified (residue 13); also: homodimer: Lys13 side chain bound to Ida linker) [compound 278]”: less than 10 µM; “192 (Ac-ARARRQRVRIIF; also: dimer: C-terminal Phe bound to an amino group of a Lys linker, 2 chains per Lys) [compound 192]”: less than 10 µM; KTKRKRKKQRVKIAYAAIFVQNM [compound 48]: more than 30 µM.
On to “437 (Ac-RRRRMQAVAIYFK(Ida(4)); not fully specified (C-terminus); also: homodimer via Ida linker at K13) [compound 437]”, for which the IC50 is less than 10 µM.
For “226 (Ac-ARRRRQRVAITFK; also: homodimer via Ida linker on side chain of Lys13) [compound 226]”, the IC50 is less than 10 µM.
The same measure, in the same setting: the figure for KTKRKRKKQRVKIAYEEIFVKN [compound 13] is less than 10 µM.
On the same count and under the same terms, the figure for “409 (Ac-QRRRRQAVAIYFK; not fully specified (residue 13, C-terminus); also: homodimer via Ida linker on Lys side chains, linker at 13 via Ida, other end not in the chain) [compound 409]” is less than 10 µM.
The same measure, in the same setting: the figure for “184 (XRRRRQRVRIIF; Xaa = Acylated Histidine; Dimeric peptide wherein the C terminus of Phe in position 12 of one peptide chain is covalently bound to one of the amino groups of a Lysine linker and Phe of the remaining peptide chain is covalently bound to the other amino group of the Lysine linker.) [compound 184]” is less than 10 µM.
Take “189 (Ac-RRRRRQHVRIIF; also: dimer: C-terminal Phe bound to an amino group of a Lys linker, 2 chains per Lys) [compound 189]”: the IC50 was less than 10 µM.
Same read-out and setting: next, “274 (Ac-RARRRQAVAIWFK-NH2; not fully specified (residue 13); also: homodimer via Ida linker on Lys13 side chain) [compound 274]”: less than 10 µM.
Still for that read-out and setting: the figure for KTKRKRKKQRVKIAY [compound 36] is more than 30 µM; for “233 (XRRRRQHVRIIF; Xaa = Acylated Histidine; Dimeric peptide wherein the C terminus of Phe in position 12 of one peptide chain is covalently bound to one of the amino groups of a Lysine linker and Phe of the remaining peptide chain is covalently bound to the other amino group of the Lysine linker.) [compound 233]” it is less than 10 µM.
Take KTKRKRKKIAYEEIFVQNM [compound 58]: the IC50 is more than 30 µM.
Take “238 (Ac-RHRRRQHVRIIF; also: dimer via C-terminal Phe to Lys linker) [compound 238]”: the half-maximal inhibitory concentration (IC50) is less than 10 µM.
As to “463 (Ac-ARRARQAVAIYFK(Ida(3)); not fully specified (C-terminus); also: homodimer via Ida linker on Lys side chains, linker at 13 via Ida, other end not in the chain) [compound 463]”, the half-inhibitory concentration (IC50) is less than 10 µM.
The same measure, in the same setting: next, “NKRKKQRVKIIFVKVFIIKVRQKKRKN [compound 151]”: less than 10 µM.
On to “129 (TKRKRKKQRVKI[Ahx][Ahx]IF; also: dimer: C-terminus of Phe16 of each chain bound to one amino group of a Lysine linker) [compound 129]”, for which the IC50 is less than 10 µM.
On to KTKRKRKKQRVKIAYEENM [compound 41], for which the half-maximal inhibitory concentration (IC50) is more than 30 µM.
Consider KTKRKRKAARVKIAYEEIFVQNM [compound 53], for which the IC50 was more than 30 µM.
Consider “306 (Ac-RRRRRQAVRIK(Ida)FV; also: homodimer via Ida linker on Lys11 side chain) [compound 306]”, for which the IC50 is less than 10 µM.
On the same count and under the same terms, next, “471 (Ac-PRRRFQAVAIYFK(Ida(3)); not fully specified (C-terminus); also: homodimer via Ida linker on Lys13 side chain) [compound 471]”: more than 30 µM.
As for “224 (Ac-ARRRRQRVAIHFK; also: homodimer via Ida linker on side chain of Lys13) [compound 224]”, the IC50 is less than 10 µM.
On to “359 (Ac-RRRHHQHVRIYFK(Ida(3))-NH2; also: homodimer via Ida linker on Lys13 side chain, Boc on Ida amine) [compound 359]”, for which the half-inhibitory concentration (IC50) is less than 10 µM.
The same measure, in the same setting: the figure for “408 (Ac-PRRRRQAVAIYFK; not fully specified (residue 13, C-terminus); also: homodimer via Ida linker on Lys side chains, linker at 13 via Ida, other end not in the chain) [compound 408]” is less than 10 µM; for “206 (Ac-RRRAAQRVRIIF; also: dimer: Phe C-termini joined via Lys linker) [compound 206]” it is less than 10 µM.
Still for that read-out and setting: next, “389 (Ac-ARRRRQAVGIYFK-NH2; not fully specified (residue 13); also: homodimer via Ida linker on Lys13 side chain, Ida amine Boc) [compound 389]”: less than 10 µM; “253 (Ac-ARRRRQRVAII[dF]K; not fully specified (C-terminus); also: homodimer: side chain of Lys13 bound to an Ida linker) [compound 253]”: less than 10 µM.
For the molecule KKQRVKIAYEEIF [compound 70], the IC50 is more than 30 µM.
Regarding KTKRKRKKQRVKIAFVQNM [compound 110], the IC50 lay in the range of 10 to 30 µM.
On to “280 (Ac-RRRRAQAVAIYFK-NH2; not fully specified (residue 13); also: homodimer via Ida linker on Lys13 side chain) [compound 280]”, for which the IC50 is less than 10 µM.
On the same count and under the same terms, the figure for “496 (Ac-PRHRRQAVAIYFK(Ida″); not fully specified (C-terminus); also: homodimer via Ida linker on Lys13 side chain) [compound 496]” is 10 to 30 µM; for “179 (Ac-RRRRRQRVAIIF; also: dimer: C-terminus of Phe12 of each chain bound to one amino group of a Lys linker) [compound 179]” it is less than 10 µM; for “248 (Ac-RRRRRQHVHIIF; also: homodimer: C-termini of two chains bound to the two amines of a Lys linker) [compound 248]” it is less than 10 µM.
Still for that read-out and setting: next, “215 (Ac-ARRRAQRVAIIF; also: dimer: Phe C-termini joined via Lys linker) [compound 215]”: less than 10 µM; “185 (Ac-RHRRRQRVRIIF; also: homodimer via C-terminal Lys linker) [compound 185]”: less than 10 µM.
